This is an account of results in patent US20160120932A1, “TRANSPLANT SITE-FORMING AGENT, TRANSPLANT SITE-FORMING DEVICE, ANGIOGENIC AGENT AND ANGIOGENIC DEVICE” (Kyoto University, priority 2014, published 2016).

The subject of assay [1] is diabetic ACI rats. Put plainly: Plasma insulin concentration of recipients after transplanting pancreatic islets. It is filed as in vivo, rat. As to conditions: at 40 days and at 90 days after transplanting the pancreatic islets; casual measurements. The text has this:
(§1) Pancreatic islets were separated from a F344 rat as a donor, and were transplanted to the diabetic ACI rats as prepared above as recipients. Specifically, the agarose rods containing SEK-1005 as prepared in the same process as described above were implanted on the right side and on the left side of the backbone of the diabetic rats, respectively, and were removed 10 days after the implantation. Thereafter, 1500 pancreatic islets separated from the […] rat were transplanted to each of the spaces formed by removing the agarose rods, respectively (3000 pancreatic islets in total).
The error bars in FIG. 6 each indicate standard deviations (normal; n=4, diabetic; n=3, 40 days after transplantation; n=4, 90 days after transplantation; n=4). The values of the plasma insulin concentration are casual measurements.

Assay [2] deals with diabetic ACI rats. The experiment in a line: HE-stained and immunofluorescent-stained tissue slice of the transplant site. It is filed as in vivo, rat. As to conditions: 106 days after transplantation.
Text: as §1
The upper images in FIG. 8 are photographs of a HE-stained tissue slice prepared from a site at which the pancreatic islets were transplanted, obtained from a recipient with a normalized blood glucose level at 106 days after the transplantation of the pancreatic islets.
The lower image in FIG. 8 is an immunofluorescent-stained image of a tissue slice obtained at the substantially same site to the HE-stained tissue slice.

Assay [3] deals with diabetic ACI rats. The experiment in a line: Blood glucose level of recipients after transplanting pancreatic islets to the site from which the agarose rod was removed. As to conditions: SEK-1005 rods removed after 10 days, 3000 pancreatic islets from F344 rat transplanted; casual blood glucose level. The format is in vivo. The procedure: (§2) Diabetic rats were prepared by intraperionerally administering streptozocin (STZ) to ACI rats (8-week old, male). The blood glucose level of the rats were measured, and it was determined that diabetes was induced when the blood glucose level exceeded 400 mg/dL for 2 days in succession. A substrate formed of 4.5% agarose gel having a rod shape of 25 mm in length and 4 mm in diameter was impregnated with SEK-1005 (100 μg) dissolved in alcohol. After sufficiently evaporating alcohol, the agarose rod was impregnated with physiological saline. The agarose rods were implanted under the skin of the diabetic rats at two portions, on the right side and on the left side of the backbone, respectively. As a control, agarose rods that were impregnated with physiological saline without SEK-1005 were implanted under the skin of a diabetic rat, on the right side and on the left side of the backbone, respectively.
Pancreatic islets were separated from a F344 rat as a donor, and were transplanted to the diabetic ACI rats as prepared above as recipients. Specifically, the agarose rods containing SEK-1005 as prepared in the same process as described above were implanted on the right side and on the left side of the backbone of the diabetic rats, respectively, and were removed 10 days after the implantation. […]

Assay [4] deals with subcutaneous tissue of diabetic ACI rats. The experiment in a line: Amount of hemoglobin in subcutaneous tissue at contact portion with the agarose rod. The format is in vivo, rat. The conditions noted are these: agarose rod containing 10 μg or 100 μg of SEK-1005, implanted for 10 days. As to the method: as §2
The data shown in FIG. 3 are the measurement results of the amount of hemoglobin of a diabetic ACI rat to which an agarose rod was not implanted, a diabetic rat implanted with an agarose rod not containing SEK-1005, a diabetic rat implanted with an agarose rod containing 10 μg of SEK-1005, and a diabetic rat implanted with an agarose rod containing 100 μg of SEK-1005. The measurement was conducted after removing the agarose rod that had been implanted for 10 days. […]

Assay [5] relates to white blood cells or bone-marrow cells. The conditions noted are these: JP-A H10-259134; cited from earlier work.
Assay [6] relates to diabetic ACI rats. The experiment in a line: Glucose tolerance test of recipients after transplantation of pancreatic islets. It is filed as in vivo, rat. The conditions noted are these: glucose intraperitoneally (60 mg/kg).
Text: as §1
In the test, changes in the blood glucose level after intraperitoneally administering glucose (60 mg/kg) were examined.
Further, glucose was administered in the same manner as the above to the recipients at 100 to 105 days after the transplantation of pancreatic islets, and the changes in the blood glucose level were examined. As a result, a trend that a degree of decrease in blood glucose level was less than the recipients at 50 to 55 days after the transplantation of the pancreatic islets was observed. […] On the other hand, the diabetic rats maintained a blood glucose level of as high as approximately 500 mg/dL. The error bars in FIG. 7 each indicate standard deviations (normal; n=4, diabetic; n=3, 40 days after transplantation; n=4, 90 days after transplantation; n=4).

Assay [7] concerns subcutaneous tissue of diabetic ACI rats. Put plainly: Evaluation of effect of inducing angiogenesis: observation of tissue around agarose rod implanted under the skin (gross and HE-stained slice). The format is in vivo, rat. As to the method: as §2
Ten days after the implantation, the agarose rods were removed and the surrounding tissues were observed.

Assay [8] deals with diabetic rat. The conditions noted are these: device containing bFGF; cited from earlier work.

As for `CC(C)CC1CCC(O)(C(C)(O)C(=O)NC2C(=O)N3NCCCC3C(=O)N(O)C(C)C(=O)N(C)C(Cc3ccccc3)C(=O)N3NCCCC3C(=O)NC(CO)C(=O)OC2C(C)C)OC1C` (stereo not drawn) [SEK-1005, Ser,3-hydroxy-N-[2-hydroxy-1-oxo-2-tetrahydro-2-hydroxy-6-methyl-5-(2-methylpropyl)-2H-pyran-2-yl-propyl]-Leu-Pip(hexahydro-3-pyridazinecarbonyl)-N-hydroxy-Ala-N-methyl-Phe-Pip-rho-lactone], in assay [1], the “plasma insulin concentration versus diabetic rat to which pancreatic islets were not transplanted (FIG. 6)” value was “significantly higher” and the “plasma insulin concentration versus normal rat (FIG. 6)” value is “did not show a significant difference”. For the same compound, in assay [2], the “blood vessels in the cell clumps, HE-stained tissue slice of transplant site (FIG. 8)” value is on record as “many blood vessels having a small diameter penetrated the cell clumps” and the “insulin-positive cells in immunofluorescent-stained tissue slice (FIG. 8)” value is listed as “insulin-positive cells were observed”. In addition, in assay [2] (recipient with normalized blood glucose level), the “pancreatic islet cell clumps in HE-stained tissue slice of transplant site (FIG. 8)” value was “many cell clumps which were considered to be pancreatic islets existed”. For the same compound, in assay [3], the “blood glucose levels of recipients (FIG. 4)” value is given as “four in six recipients were normalized over 100 days”. The “amount of hemoglobin in the subcutaneous tissue (FIG. 3)” value in assay [4] is “increased”. Also, in assay [5], the “amount of granulation tissue” value is listed as “increasing the amount of a granulation tissue”. The “changes in blood glucose level in glucose tolerance test (FIG. 7)” value in assay [6] (50 to 55 days after transplantation) is given as “controlled to a similar level to a normal rat”. In assay [6] (100 to 105 days after transplantation), the “changes in blood glucose level in glucose tolerance test (FIG. 7)” value is listed as “controlled to a degree similar to that of a normal rat”. In assay [7] (agarose rod containing SEK-1005 (100 μg) implanted under the skin for 10 days, compared to rod not containing SEK-1005), the “development of blood vessels having a small diameter at the surrounding tissue (FIG. 1)” value is reported as “blood vessels having a small diameter were developed”. The “development of blood vessels having a small diameter in HE-stained subcutaneous tissue slice (FIG. 2)” value in assay [7] (contact portion with agarose rod containing SEK-1005, compared with rod not containing SEK-1005) is given as “blood vessels having a small diameter were developed”.
“bFGF: basic fibroblast growth factors, a substance for inducing angiogenesis”: in assay [8], the “blood glucose level after transplanting pancreatic islets at the site after removing the device” value was “normalized during a long period of time” and the “generation of blood vessels at the site under the skin where the device was implanted” value is given as “generation of blood vessels having a small diameter was observed”.
